IC50 and inhibition data for 27 compounds are collected here from ChEMBL document CHEMBL1147563, “Solid-phase synthesis and SAR of 4-carboxy-2-azetidinone mechanism-based tryptase inhibitors” (Bioorg Med Chem Lett, 2004).

As a reminder, the IC50 is the point on the concentration scale where inhibition reaches its midpoint. By inhibition is commonly meant the change of the read-out against control, counted positive when it falls.

Test [1] deals with Tissue-type plasminogen activator (Homo sapiens, UniProt P00750). The test is described as follows: Inhibitory activity against tissue type plasminogen activator.
In the next test the target is Plasminogen (Rattus norvegicus, UniProt Q01177). Nature of the test: Inhibitory activity against plasmin.
In a further test the target is Coagulation factor X (Homo sapiens, UniProt P00742). The test is described as follows: Inhibitory activity against Coagulation factor X.
In test [2] the target is Urokinase-type plasminogen activator (Homo sapiens, UniProt P00749). The test is described as follows: Inhibitory activity against Urokinase-type plasminogen activator.
Test [3] deals with T1, Serine protease 1 (Bos taurus, UniProt P00760).
T1 sequence (P00760 whole entry): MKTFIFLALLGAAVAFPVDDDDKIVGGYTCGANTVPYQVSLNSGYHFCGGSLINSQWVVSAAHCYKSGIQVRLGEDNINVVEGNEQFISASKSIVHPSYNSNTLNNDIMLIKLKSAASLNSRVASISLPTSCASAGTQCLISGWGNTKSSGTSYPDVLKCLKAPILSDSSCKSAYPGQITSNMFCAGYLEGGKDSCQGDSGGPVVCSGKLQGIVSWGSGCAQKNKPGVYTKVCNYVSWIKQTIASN
The test is described as follows: Inhibitory activity against bovine trypsin.

In another test the target is Prothrombin (Homo sapiens, UniProt P00734). Nature of the test: Inhibitory activity against thrombin.
The target in test [4] is Serine protease 1 (Homo sapiens, UniProt P07477). The test is described as follows: Inhibitory activity against trypsin.
In the next test the target is Tryptase (Homo sapiens, UniProt Q9BZJ3+Q15661+Q9NRR2). The test is described as follows: Inhibitory activity against human tryptase.
Test [5] concerns the target T2, Serine protease 1 (Bos taurus) (UniProt P00760).
T2 sequence (whole entry): T1 sequence (P00760 whole entry)
Nature of the test: Inhibition of bovine trypsin at 0.2 uM.

Sequence of Tissue-type plasminogen activator (P00750 whole entry): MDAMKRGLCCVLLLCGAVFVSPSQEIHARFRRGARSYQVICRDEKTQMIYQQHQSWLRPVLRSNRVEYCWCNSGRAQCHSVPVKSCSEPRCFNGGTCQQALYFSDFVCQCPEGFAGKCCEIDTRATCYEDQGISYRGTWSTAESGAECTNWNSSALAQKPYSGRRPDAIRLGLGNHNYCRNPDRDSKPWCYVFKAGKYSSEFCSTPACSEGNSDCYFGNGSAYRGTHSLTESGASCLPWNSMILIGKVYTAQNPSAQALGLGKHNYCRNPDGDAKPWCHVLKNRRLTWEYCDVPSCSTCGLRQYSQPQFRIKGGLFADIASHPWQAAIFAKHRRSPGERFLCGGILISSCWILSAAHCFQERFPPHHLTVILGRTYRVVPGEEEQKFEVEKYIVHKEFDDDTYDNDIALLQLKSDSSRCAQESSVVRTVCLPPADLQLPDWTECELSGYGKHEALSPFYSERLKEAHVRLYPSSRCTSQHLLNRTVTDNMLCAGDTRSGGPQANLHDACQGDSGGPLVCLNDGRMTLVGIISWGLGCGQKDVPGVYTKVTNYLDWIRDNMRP
Sequence of Serine protease 1 (Homo sapiens, UniProt P07477) (P07477 whole entry): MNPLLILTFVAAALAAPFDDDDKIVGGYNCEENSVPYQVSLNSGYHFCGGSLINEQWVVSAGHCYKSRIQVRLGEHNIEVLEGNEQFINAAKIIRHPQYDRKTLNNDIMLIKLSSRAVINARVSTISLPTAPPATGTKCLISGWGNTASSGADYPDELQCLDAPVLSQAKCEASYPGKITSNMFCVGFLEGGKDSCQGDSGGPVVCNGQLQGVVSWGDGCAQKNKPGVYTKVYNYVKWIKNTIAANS
Sequence of Plasminogen (Q01177 97-581 limits assumed): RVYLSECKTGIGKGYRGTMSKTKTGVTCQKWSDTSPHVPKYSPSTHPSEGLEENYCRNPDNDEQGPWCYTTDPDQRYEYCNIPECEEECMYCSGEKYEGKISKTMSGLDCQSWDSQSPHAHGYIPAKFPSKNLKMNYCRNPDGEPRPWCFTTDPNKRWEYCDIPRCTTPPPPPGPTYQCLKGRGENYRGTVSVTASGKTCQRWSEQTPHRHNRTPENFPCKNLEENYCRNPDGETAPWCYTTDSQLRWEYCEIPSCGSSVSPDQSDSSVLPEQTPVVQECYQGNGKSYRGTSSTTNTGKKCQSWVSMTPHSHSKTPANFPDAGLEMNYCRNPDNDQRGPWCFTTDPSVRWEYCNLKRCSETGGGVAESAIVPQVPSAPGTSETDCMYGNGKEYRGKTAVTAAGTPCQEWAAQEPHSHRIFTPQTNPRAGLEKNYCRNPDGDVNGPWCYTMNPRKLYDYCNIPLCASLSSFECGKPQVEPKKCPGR
Sequence of Plasminogen (Q01177 582-812 limits assumed): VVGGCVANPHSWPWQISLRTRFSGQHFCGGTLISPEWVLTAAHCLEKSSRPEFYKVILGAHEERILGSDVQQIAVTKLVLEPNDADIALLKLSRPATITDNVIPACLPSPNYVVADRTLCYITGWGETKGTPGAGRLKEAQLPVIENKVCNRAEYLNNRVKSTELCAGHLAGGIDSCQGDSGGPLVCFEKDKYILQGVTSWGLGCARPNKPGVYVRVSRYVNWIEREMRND
Sequence of Coagulation factor X (P00742 41-179 limits assumed): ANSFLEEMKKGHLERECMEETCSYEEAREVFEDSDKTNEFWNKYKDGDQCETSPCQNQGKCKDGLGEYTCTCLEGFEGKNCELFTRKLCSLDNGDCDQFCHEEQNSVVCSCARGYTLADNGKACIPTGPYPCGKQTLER
Sequence of Coagulation factor X (P00742 235-488 limits assumed): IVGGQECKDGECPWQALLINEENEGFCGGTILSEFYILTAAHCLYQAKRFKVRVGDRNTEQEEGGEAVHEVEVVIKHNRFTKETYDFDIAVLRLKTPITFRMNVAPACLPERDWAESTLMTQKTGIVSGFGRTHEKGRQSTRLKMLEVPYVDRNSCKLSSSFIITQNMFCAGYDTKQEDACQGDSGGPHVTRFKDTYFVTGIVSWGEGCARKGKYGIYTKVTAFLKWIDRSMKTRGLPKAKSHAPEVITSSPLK

Turning to `CC(C)(C)NC(=O)N1CCN(C(=O)N2C(=O)[C@H](CC3CCNCC3)[C@H]2C(=O)O)CC1`, the IC50 in [1] is over 1100 nM; at Plasminogen, 250 nM; against Coagulation factor X it was over 1100 nM; in test [2], 34 nM; on Serine protease 1 [3], 1900 nM; against Prothrombin, over 1100 nM. Besides, the IC50 on Serine protease 1 [4] was found to be 62 nM; on Tryptase it was 30 nM.
On Tryptase, `CC(=O)Nc1ccsc1C(=O)N1CCN(C(=O)N2C(=O)[C@H](CC3CCNCC3)C2C(=O)O)CC1` (single isomer, unassigned) came in with an IC50 of 190 nM. The compound further had an inhibition in [5] of 68%.
The corresponding values for `O=C(O)C1[C@@H](CC2CCNCC2)C(=O)N1C(=O)N1CCN(C(=O)Cc2ccc3c(c2)CCCC3)CC1` (single isomer, unassigned) are 30 nM and 18%.
Consider `O=C(O)C1[C@@H](CC2CCNCC2)C(=O)N1C(=O)N1CCN(C(=O)CCCCCc2ccc3ccccc3c2)CC1` (single isomer, unassigned), for which the half-maximal inhibitory concentration (IC50) was 320 nM at Serine protease 1 [3] and 1 nM at Tryptase.
For `O=C(O)C1[C@@H](CC2CCNCC2)C(=O)N1C(=O)N1CCN(C(=O)CCCCc2ccccc2)CC1` (single isomer, unassigned), in that order: 810 nM and 6 nM.
`O=C(O)C1[C@@H](CC2CCNCC2)C(=O)N1C(=O)N1CCN(C(=O)c2ccccc2-c2ccccc2)CC1` (single isomer, unassigned) returned a half-inhibitory concentration (IC50) on Tryptase of 42 nM. For the same compound, the inhibition in test [5] was found to be 46%.
The corresponding values for `O=C(O)C1[C@@H](CC2CCNCC2)C(=O)N1C(=O)N1CCN(C(=O)c2cc3ccccc3o2)CC1` (single isomer, unassigned) are 21 nM and 89%.
The corresponding values for `Cc1onc(-c2ccccc2)c1C(=O)N1CCN(C(=O)N2C(=O)[C@H](CC3CCNCC3)C2C(=O)O)CC1` (single isomer, unassigned) are 290 nM and 31%.
On to `O=C(O)C1[C@@H](CC2CCNCC2)C(=O)N1C(=O)N1CCN(C(=O)c2ccccc2CCc2ccccc2)CC1` (single isomer, unassigned), for which, at Tryptase, the half-inhibitory concentration (IC50) is 140 nM. The inhibition in [5] is 60%.
For `CC1=NN(c2ccc(C(=O)N3CCN(C(=O)N4C(=O)[C@H](CC5CCNCC5)C4C(=O)O)CC3)cc2)C(=O)C1` (single isomer, unassigned), in that order: 380 nM and 91%.
The corresponding values for `O=C(O)C1[C@@H](CC2CCNCC2)C(=O)N1C(=O)N1CCN(C(=O)CCCC2CCCCC2)CC1` (single isomer, unassigned) are 24 nM and 40%.
For `O=C(O)C1[C@@H](CC2CCNCC2)C(=O)N1C(=O)N1CCN(C(=O)c2cccc(Oc3ccccc3)c2)CC1` (single isomer, unassigned), in that order: 15 nM and 78%.
Turning to `O=C(O)C1[C@@H](CC2CCNCC2)C(=O)N1C(=O)N1CCN(C(=O)c2ccc(Oc3ccccc3)cc2)CC1` (single isomer, unassigned), the IC50 came to 140 nM at Serine protease 1 [3] and 7 nM on Tryptase.
In the case of `O=C(O)C1[C@@H](CC2CCNCC2)C(=O)N1C(=O)N1CCN(C(=O)Cc2ccc(OCc3ccccc3)cc2)CC1` (single isomer, unassigned), the IC50 in test [1] was over 33000 nM; on Plasminogen, 380 nM; in test [2], 1210 nM; against Serine protease 1 [3], 440 nM; on Serine protease 1 [4], 440 nM; at Tryptase, 1 nM.
Take `O=C(O)C1[C@@H](CC2CCNCC2)C(=O)N1C(=O)N1CCN(C(=O)CCCCCc2ccccc2)CC1` (single isomer, unassigned): the half-inhibitory concentration (IC50) is over 33000 nM in [1]; 170 nM against Plasminogen; 970 nM in test [2]; 310 nM against Serine protease 1 [3]; 310 nM on Serine protease 1 [4].
On Tryptase, `O=C1CC[C@@H](C(=O)N2CCN(C(=O)N3C(=O)[C@H](CC4CCNCC4)C3C(=O)O)CC2)N1` (single isomer, unassigned) yielded an IC50 of 170 nM. This compound also returned an inhibition in [5] of 69%.
With `O=C(O)C1[C@@H](CC2CCNCC2)C(=O)N1C(=O)N1CCN(C(=O)CCCc2nc(-c3ccc(Cl)cc3)no2)CC1` (single isomer, unassigned), the 50% inhibitory concentration (IC50) at Serine protease 1 [3] was 150 nM; against Tryptase it was 5 nM.
Turning to `CC(C)(C)NC(=O)N1CCN(C(=O)N2C(=O)[C@H](CCCN=C(N)N)C2C(=O)O)CC1` (single isomer, unassigned), the IC50 in test [1] was over 8250 nM; against Plasminogen, 430 nM; on Serine protease 1 [3] it was 72 nM; against Serine protease 1 [4], 4.5 nM.
As for `O=C(O)C1[C@@H](CC2CCNCC2)C(=O)N1C(=O)N1CCN(C(=O)c2cc3cc(F)ccc3[nH]2)CC1` (single isomer, unassigned), the IC50 at Tryptase was found to be 450 nM. Further, in test [5], the inhibition came out at 63%.
The corresponding values for `O=C(O)C1[C@@H](CC2CCNCC2)C(=O)N1C(=O)N1CCN(C(=O)c2ccccc2Oc2ccccc2)CC1` (single isomer, unassigned) are 120 nM and 2%.
For `O=C(O)C1[C@@H](CC2CCNCC2)C(=O)N1C(=O)N1CCN(C(=O)c2ccc3ccccc3n2)CC1` (single isomer, unassigned), in that order: 110 nM and 51%.
The corresponding values for `O=C(O)C1[C@@H](CC2CCNCC2)C(=O)N1C(=O)N1CCN(C(=O)Cc2ccc3ccccc3c2)CC1` (single isomer, unassigned) are 70 nM and 22%.
Consider `O=C(O)C1[C@@H](CC2CCNCC2)C(=O)N1C(=O)N1CCN(C(=O)Cc2ccc(CCCc3ccccc3)cc2)CC1` (single isomer, unassigned), for which the IC50 on Serine protease 1 [3] turned out to be 1580 nM; at Tryptase, 9 nM.
The corresponding values for `O=C(O)C1[C@@H](CC2CCNCC2)C(=O)N1C(=O)N1CCN(C(=O)CCCCCCc2cccc3ccccc23)CC1` (single isomer, unassigned) are 320 nM and 1 nM.
On Tryptase, `O=C(O)C1[C@@H](CC2CCNCC2)C(=O)N1C(=O)N1CCN(C(=O)c2ccc(C3CCCCC3)cc2)CC1` (single isomer, unassigned) returned an IC50 of 40 nM. The compound also displayed an inhibition in [5] of 76%.
The corresponding values for `O=C(O)C1[C@@H](CC2CCNCC2)C(=O)N1C(=O)N1CCN(C(=O)Cc2ccc3c(c2)OCO3)CC1` (single isomer, unassigned) are 55 nM and 19%.
For `O=C(O)C1[C@@H](CC2CCNCC2)C(=O)N1C(=O)N1CCN(C(=O)c2ccc3ccccc3c2)CC1` (single isomer, unassigned), the inhibition in [5] came to 72%.
